Source: patent publication US20020028851A1, “Guanylhydrazones and their use to treat inflammatory conditions” (priority 1994, published 2002)

Assays:
CHO-TNF tumor = CHO-TNF tumor growth in nude mice; type: in vivo; conditions: 0.4 mg/Kg i.p. once daily, two weeks
Method: This section describes in detail the methods and results of an animal model of tumor growth to determine the ability of the compounds of the invention to inhibit tumor growth, and cause regression of tumors. Cells are plated in standard tissue culture flasks in DMEM supplemented with fetal calf serum (10%). Chinese hamster ovary (CHO) cells stably transfected with a mammalian expression vector constitutively secrete human TNF (CHO-TNF). The experiments with the CHO-TNF tumor were performed as follows: on the day of injection into nude mice, cells are harvested and injected intramuscularly (10-15×10^6 cells per animal) into the hindlimb of nu/nu nude mice (20 g body weight). Animals are housed and provided food and water ad libitum. Tumor growth is monitored, and when established tumors are present (during week six) the test compounds are administered daily (0.4 mg/Kg intraperitoneal, once daily). After two weeks the animals are euthanized, the tumor weighed, and measured with a caliper. The CHO-TNF tumor also metastasizes to the skin of these animals; the number of metastases is scored.

BALB/c mice = assay: LPS-induced lethality (endotoxic shock); type: in vivo
Method: Experiments were undertaken to evaluate the effects of Compound No. 14 in preventing the lethal toxicity of lipopolysaccharide (LPS). LPS was administered to induce 50% lethality within 72 hr in BALB/c mice (FIG. 10). BALB/c mice (19-21 g) were given LPS (E. coli 0111:B4; Sigma) in a dose of 13.75 mg/Kg by intraperitoneal injection (0.2 ml/mouse). Stock LPS solutions (10 mg/ml) were sonicated initially for 20 min, diluted in LPS-free water (1.375 mg/ml), then sonicated again for 10 min immediately prior to injection. Compound No. 14 (1 mg/Kg, i.p.) was administered 1.5 hr before LPS. Compound No. 14 injectate was free of LPS as measured by quantitative chromogenic Limulus amebocyte lysate test (BioWhittaker, Walkersville, Md.). Data points are from two groups consisting of 10 mice per group.
Data were subjected to statistical analysis using the z test for independent proportions. The difference bewteen control and Compound No. 14 is significant (one-tailed p value<0.05; z=1.95).

RAW 264.7 cells = assay: Whole cell inhibition assay for urea output; type: cell-based, murine; conditions: for urea % suppression of induced production: γIFN+LPS, 18 hours
Method: RAW 264.7 cells are plated in microculture wells at 1×10^6/ml in RPMI 1640 with 10% FBS and otherwise standard culture conditions and allowed to adhere for 5 hours. They are then activated with 25 U/ml γIFN and 0.1 μg/ml LPS in the presence of test inhibitors. The urea concentration present in the supernatant media, after 18 hours of culture, is determined by a colorimetric blood urea nitrogen diacetylmonoxime assay performed on an aliquot of the culture supernatant (Sigma Chem. Co., St. Louis, Mo.) and inhibition is expressed as the percentage urea compared to that of a parallel control culture treated identically except that the concentration of added inhibitor is zero.
Various concentrations of the test compounds are included in the media of the stimulated RAW 264.7 cells in culture. The concentration of urea and/or nitrite after 18 hours of activated culture is determined and compared to the uninhibited control value obtained from at least one parallel culture. The fractional reduction is calculated for each concentration of inhibitor and the IC50 (concentration giving 50% reduction) is interpolated. Compounds were dissolved in media with mild heat (60° C.). Those with limited solubility were dissolved in base. The concentration of stock solutions of those compounds which were not completely soluble was determined by OD280.

TNF = TNF production by LPS/γIFN-stimulated RAW 264.7 cells; type: cell-based, murine
Method: RAW 264.7 cells were plated in standard 6-well culture plates at a density of 10^6/well and allowed to adhere for from 2 hr to overnight. The medium was then replaced with medium containing the compound to be tested. One hour later, the medium was supplemented so as to contain 25 U/ml γIFN and 0.1 μg/ml LPS and the cultures incubated a further 18 hr. The medium was then collected, and cell debris removed by centrifugation. This conditioned supernatant was then assayed for the presence of TNF using standard methodologies: L929 cell cytotoxicity bioassay, radioimmunoassay or ELISA, and Western blotting with antibodies against murine TNF.

[1] = tested on: Nude mice (nu/nu), AtT-20 cells; assay: Tumor-associated cachexia model, urinary urea loss; type: in vivo; conditions: for URINARY UREA LOSS / URINARY UREA LOSS, Sum totals: 0.4 mg/Kg daily i.p.; for URINARY UREA LOSS, Sum totals: sum of listed days
Method: An animal model of tumor-associated protein catabolic illness (cachexia) was employed to directly test the efficacy of Compound No. 14 in reducing whole-body nitrogen losses. Tumors were induced in the appropriate groups by intramuscular inoculation with 15×10^6 AtT-20 cells; this model is known to cause a protein catabolic illness characterized by the consumption of normal quantities of food, but 20% net whole-body losses of protein within 14 days. Compound No. 14 was administered to the “treated” groups in a daily dose of 0.4 mg/Kg, intraperitoneal. Nude mice (nu/nu) were housed in metabolic cages (4 per cage) to facilitate collection of daily urine samples for 14 days. Food intake was measured daily. There were four groups of animals: 1) untreated, non-tumor bearing controls; 2) untreated, tumor-bearing; 3) treated, tumor-bearing, and 4) treated, non-tumor-bearing. Urine was collected and urinary urea losses quantified.

[2] = over the 14 day period, per mouse

## CC(=NNC(=N)N)c1cc(NC(=O)CCCCCCCCC(=O)Nc2cc(C(C)=NNC(=N)N)cc(C(C)=NNC(=N)N)c2)cc(C(C)=NNC(=N)N)c1.Cl.Cl.Cl.Cl [Compound 14, N,N′-bis(3,5-diacetyl-phenyl)decanediamide tetrakis(amidinohydrazone) tetrahydrochloride]
CHO-TNF tumor
  # of METASTASES (skin): not present
  reduction in tumor size (animals responding): reduction in tumor size in four out of five animals
CHO-TNF tumor; listed as No. 14
  # of METASTASES (skin): 0
CHO-TNF tumor; n = 4
  TUMOR DIMENSION: 207.99 ± 119.90 mm^2
  TUMOR WEIGHT: 1.628 ± 1.07 g
BALB/c mice; 1 mg/Kg i.p. 1.5 hr before LPS
  Diarrhea after LPS: not suppressed
  visible signs of LPS toxicity: markedly suppressed
BALB/c mice; 1 mg/Kg i.p. 1.5 hr before LPS 13.75 mg/Kg i.p., 72 hr, p<0.05
  LPS-induced lethality: reduced lethality
BALB/c mice; animals receiving compound alone, 1 mg/Kg i.p.
  gross signs of systemic toxicity: no gross signs of systemic toxicity
RAW 264.7 cells; dose 2 μM
  urea % suppression of induced production: 68%
RAW 264.7 cells; dose 10 μM
  urea % suppression of induced production: 78%
RAW 264.7 cells; dose 50 μM
  urea % suppression of induced production: 100%
RAW 264.7 cells; dose 200 μM
  urea % suppression of induced production: 100%
RAW 264.7 cells; interpolated, γIFN+LPS-activated RAW 264.7, 18 hours, read-out: I.C.50 (in parenthesis), inhibition of urea production
  IC50: 1 µM
TNF; 10 μM, L929 cell bioassay, 18 hr
  reduction of TNF accumulation in the culture medium: more than 99%
TNF; 5 and 25 μM
  TNF protein in the medium (Western blot): absence of TNF protein
[1]; Controls, Treated (non-tumor-bearing), day 2
  URINARY UREA LOSS: 193 mg/group
[1]; Controls, Treated (non-tumor-bearing), day 4
  URINARY UREA LOSS: 285 mg/group
[1]; Controls, Treated (non-tumor-bearing), day 6
  URINARY UREA LOSS: 397 mg/group
[1]; Controls, Treated (non-tumor-bearing), day 7
  URINARY UREA LOSS: 247 mg/group
[1]; Controls, Treated (non-tumor-bearing), day 8
  URINARY UREA LOSS: 257 mg/group
[1]; Controls, Treated (non-tumor-bearing), day 10
  URINARY UREA LOSS: 216 mg/group
[1]; Controls, Treated (non-tumor-bearing), day 11
  URINARY UREA LOSS: 239 mg/group
[1]; Controls, Treated (non-tumor-bearing), day 12
  URINARY UREA LOSS: 203 mg/group
[1]; Controls, Treated (non-tumor-bearing), day 13
  URINARY UREA LOSS: 242 mg/group
[1]; Controls, Treated (non-tumor-bearing), day 14
  URINARY UREA LOSS: 157 mg/group
[1]; Controls, Treated (non-tumor-bearing)
  URINARY UREA LOSS, Sum totals: 2436 mg/group
[1]; Tumor, Treated, day 2 after tumor
  URINARY UREA LOSS: 195 mg/group
[1]; Tumor, Treated, day 4 after tumor
  URINARY UREA LOSS: 368 mg/group
[1]; Tumor, Treated, day 6 after tumor
  URINARY UREA LOSS: 295 mg/group
[1]; Tumor, Treated, day 7 after tumor
  URINARY UREA LOSS: 312 mg/group
[1]; Tumor, Treated, day 8 after tumor
  URINARY UREA LOSS: 275 mg/group
[1]; Tumor, Treated, day 10 after tumor
  URINARY UREA LOSS: 206 mg/group
[1]; Tumor, Treated, day 11 after tumor
  URINARY UREA LOSS: 219 mg/group
[1]; Tumor, Treated, day 12 after tumor
  URINARY UREA LOSS: 115 mg/group
[1]; Tumor, Treated, day 13 after tumor
  URINARY UREA LOSS: 201 mg/group
[1]; Tumor, Treated, day 14 after tumor
  URINARY UREA LOSS: 187 mg/group
[1]; Tumor, Treated
  URINARY UREA LOSS, Sum totals: 2373 mg/group
[1]; over the 14 day period
  loss of urea prevented: approximately 200 mg urea/mouse
[1]; [2]
  nitrogen retained (equivalent of urea loss prevented): approximately 100 mg
  protein retained (equivalent of urea loss prevented): ~625 mg
  wet muscle mass retained (equivalent of urea loss prevented): ~2.7 g
